{"source": "patent US11931424B2", "about": "“Combination MCL-1 inhibitors with anti-body drug conjugates” (Gilead Sciences, Inc., priority 2021, dated 2024)", "test_system": "panel of breast cancer cell lines", "test": "Compound A with targeted agents and chemotherapies, 72-hour in vitro proliferation assays", "type": "cell-based", "settings": "compound A × partner, 72-hour proliferation"}
{"smiles": "CC(C)NC[C@@H](C(=O)N1CCN(c2ncnc3c2[C@H](C)C[C@H]3O)CC1)c1ccc(Cl)cc1", "note": "[GDC-0068]", "values": [{"measurement": "Best CI", "setting": "AU565 cell line", "value": 0.88}, {"measurement": "Bliss Volume", "setting": "AU565 cell line", "value": 5.42}, {"measurement": "HSA volume", "setting": "AU565 cell line", "value": 2.46}, {"measurement": "Loewe Volume", "setting": "AU565 cell line", "value": 1.85}, {"measurement": "Synergy Score", "setting": "AU565 cell line", "value": 6.93}, {"measurement": "Best CI", "setting": "BT-20 cell line", "value": 0.15}, {"measurement": "Bliss Volume", "setting": "BT-20 cell line", "value": 14.37}, {"measurement": "HSA volume", "setting": "BT-20 cell line", "value": 13.36}, {"measurement": "Loewe Volume", "setting": "BT-20 cell line", "value": 11.91}, {"measurement": "Synergy Score", "setting": "BT-20 cell line", "value": 26.99}, {"measurement": "Best CI", "setting": "CAL-51 cell line", "value": 0.66}, {"measurement": "Bliss Volume", "setting": "CAL-51 cell line", "value": 1.90}, {"measurement": "HSA volume", "setting": "CAL-51 cell line", "value": 2.22}, {"measurement": "Loewe Volume", "setting": "CAL-51 cell line", "value": 2.48}, {"measurement": "Synergy Score", "setting": "CAL-51 cell line", "value": 1.93}, {"measurement": "Best CI", "setting": "CAL-85-1 cell line", "value": 0.22}, {"measurement": "Bliss Volume", "setting": "CAL-85-1 cell line", "value": "−1.63"}, {"measurement": "HSA volume", "setting": "CAL-85-1 cell line", "value": 2.26}, {"measurement": "Loewe Volume", "setting": "CAL-85-1 cell line", "value": 1.63}, {"measurement": "Synergy Score", "setting": "CAL-85-1 cell line", "value": 4.37}, {"measurement": "Best CI", "setting": "CAL-120 cell line", "value": 0.04}, {"measurement": "Bliss Volume", "setting": "CAL-120 cell line", "value": "−1.18"}, {"measurement": "HSA volume", "setting": "CAL-120 cell line", "value": "−0.50"}, {"measurement": "Loewe Volume", "setting": "CAL-120 cell line", "value": 0.09}, {"measurement": "Synergy Score", "setting": "CAL-120 cell line", "value": 1.05}, {"measurement": "Best CI", "setting": "CAL-148 cell line", "value": 0.20}, {"measurement": "Bliss Volume", "setting": "CAL-148 cell line", "value": 15.98}, {"measurement": "HSA volume", "setting": "CAL-148 cell line", "value": 11.23}, {"measurement": "Loewe Volume", "setting": "CAL-148 cell line", "value": 11.35}, {"measurement": "Synergy Score", "setting": "CAL-148 cell line", "value": 22.09}, {"measurement": "Best CI", "setting": "CAMA-1 cell line", "value": 0.11}, {"measurement": "Bliss Volume", "setting": "CAMA-1 cell line", "value": 26.60}, {"measurement": "HSA volume", "setting": "CAMA-1 cell line", "value": 14.33}, {"measurement": "Loewe Volume", "setting": "CAMA-1 cell line", "value": 13.52}, {"measurement": "Synergy Score", "setting": "CAMA-1 cell line", "value": 27.46}, {"measurement": "Bliss Volume", "setting": "DU-4475 cell line", "value": "−5.18"}, {"measurement": "HSA volume", "setting": "DU-4475 cell line", "value": "−7.77"}, {"measurement": "Loewe Volume", "setting": "DU-4475 cell line", "value": "−5.05"}, {"measurement": "Synergy Score", "setting": "DU-4475 cell line", "value": 0.20}, {"measurement": "Best CI", "setting": "EVSA-T cell line", "value": 0.27}, {"measurement": "Bliss Volume", "setting": "EVSA-T cell line", "value": 38.10}, {"measurement": "HSA volume", "setting": "EVSA-T cell line", "value": 10.77}, {"measurement": "Loewe Volume", "setting": "EVSA-T cell line", "value": 8.56}, {"measurement": "Synergy Score", "setting": "EVSA-T cell line", "value": 18.16}, {"measurement": "Best CI", "setting": "HCC38", "value": 1.04}, {"measurement": "Bliss Volume", "setting": "HCC38", "value": 3.63}, {"measurement": "HSA volume", "setting": "HCC38", "value": 6.49}, {"measurement": "Loewe Volume", "setting": "HCC38", "value": 5.61}, {"measurement": "Synergy Score", "setting": "HCC38", "value": 5.92}, {"measurement": "Best CI", "setting": "HCC70", "value": 0.30}, {"measurement": "Bliss Volume", "setting": "HCC70", "value": 19.29}, {"measurement": "HSA volume", "setting": "HCC70", "value": 14.42}, {"measurement": "Loewe Volume", "setting": "HCC70", "value": 13.10}, {"measurement": "Synergy Score", "setting": "HCC70", "value": 27.63}, {"measurement": "Best CI", "setting": "HCC1143", "value": 0.56}, {"measurement": "Bliss Volume", "setting": "HCC1143", "value": 1.41}, {"measurement": "HSA volume", "setting": "HCC1143", "value": "−1.97"}, {"measurement": "Loewe Volume", "setting": "HCC1143", "value": 1.22}, {"measurement": "Synergy Score", "setting": "HCC1143", "value": 3.73}, {"measurement": "Best CI", "setting": "HCC1569", "value": 0.24}, {"measurement": "Bliss Volume", "setting": "HCC1569", "value": 9.34}, {"measurement": "HSA volume", "setting": "HCC1569", "value": 10.52}, {"measurement": "Loewe Volume", "setting": "HCC1569", "value": 10.52}, {"measurement": "Synergy Score", "setting": "HCC1569", "value": 15.41}, {"measurement": "Best CI", "setting": "HCC1806", "value": 0.83}, {"measurement": "Bliss Volume", "setting": "HCC1806", "value": 4.78}, {"measurement": "HSA volume", "setting": "HCC1806", "value": "−2.22"}, {"measurement": "Loewe Volume", "setting": "HCC1806", "value": 2.14}, {"measurement": "Synergy Score", "setting": "HCC1806", "value": 2.21}, {"measurement": "Best CI", "setting": "HCC1937", "value": 0.44}, {"measurement": "Bliss Volume", "setting": "HCC1937", "value": 8.88}, {"measurement": "HSA volume", "setting": "HCC1937", "value": 6.08}, {"measurement": "Loewe Volume", "setting": "HCC1937", "value": 8.48}, {"measurement": "Synergy Score", "setting": "HCC1937", "value": 6.18}, {"measurement": "Best CI", "setting": "HCC1954", "value": 0.16}, {"measurement": "Bliss Volume", "setting": "HCC1954", "value": 19.16}, {"measurement": "HSA volume", "setting": "HCC1954", "value": 18.41}, {"measurement": "Loewe Volume", "setting": "HCC1954", "value": 17.07}, {"measurement": "Synergy Score", "setting": "HCC1954", "value": 33.91}, {"measurement": "Best CI", "setting": "HCC2218", "value": 0.13}, {"measurement": "Bliss Volume", "setting": "HCC2218", "value": 10.70}, {"measurement": "HSA volume", "setting": "HCC2218", "value": 8.89}, {"measurement": "Loewe Volume", "setting": "HCC2218", "value": 7.71}, {"measurement": "Synergy Score", "setting": "HCC2218", "value": 22.09}, {"measurement": "Best CI", "setting": "HDQ-P1", "value": 1.46}, {"measurement": "Bliss Volume", "setting": "HDQ-P1", "value": "−1.34"}, {"measurement": "HSA volume", "setting": "HDQ-P1", "value": "−1.27"}, {"measurement": "Loewe Volume", "setting": "HDQ-P1", "value": "−2.21"}, {"measurement": "Synergy Score", "setting": "HDQ-P1", "value": 1.94}, {"measurement": "Best CI", "setting": "HMC-1-8", "value": 0.26}, {"measurement": "Bliss Volume", "setting": "HMC-1-8", "value": 17.75}, {"measurement": "HSA volume", "setting": "HMC-1-8", "value": 12.01}, {"measurement": "Loewe Volume", "setting": "HMC-1-8", "value": 12.08}, {"measurement": "Synergy Score", "setting": "HMC-1-8", "value": 21.76}, {"measurement": "Best CI", "setting": "JIMT-1", "value": 0.26}, {"measurement": "Bliss Volume", "setting": "JIMT-1", "value": 2.76}, {"measurement": "HSA volume", "setting": "JIMT-1", "value": 1.18}, {"measurement": "Loewe Volume", "setting": "JIMT-1", "value": 1.53}, {"measurement": "Synergy Score", "setting": "JIMT-1", "value": 1.19}, {"measurement": "Synergy Score", "setting": "KPL-1", "value": 10.58}]}
